Legend:
LXRβ full length (FL) = molecular target: T1, LXRβ full length (FL) (Homo sapiens, UniProt P55055, DUP175-175); assay: LXR Gal4 reporter transient transfection assay (M2H), Gal4β FL; format: cell-based; details: HEK293 cells; read-out: M2H Gal4β FL activity range (EC50)
T1 construct: the full length (FL) proteins of LXRα (amino acids 1-447); NP005684; NP009052; expressed in transfected cells; host or cells: HEK293
T1 sequence (P55055 with tags, fused parts or gaps DUP175-175): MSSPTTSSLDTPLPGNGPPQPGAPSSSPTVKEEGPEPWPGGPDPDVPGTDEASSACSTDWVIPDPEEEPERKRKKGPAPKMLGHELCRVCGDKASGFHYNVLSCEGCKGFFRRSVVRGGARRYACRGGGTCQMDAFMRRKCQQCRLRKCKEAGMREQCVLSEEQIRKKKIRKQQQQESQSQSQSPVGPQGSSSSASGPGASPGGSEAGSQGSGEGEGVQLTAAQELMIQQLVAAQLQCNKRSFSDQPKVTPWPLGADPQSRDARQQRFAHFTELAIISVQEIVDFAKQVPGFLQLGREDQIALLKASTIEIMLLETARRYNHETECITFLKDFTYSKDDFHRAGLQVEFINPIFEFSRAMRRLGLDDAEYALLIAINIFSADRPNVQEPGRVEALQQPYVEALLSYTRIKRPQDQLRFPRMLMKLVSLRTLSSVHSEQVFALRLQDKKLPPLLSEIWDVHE
Protocol: (§1) The tested compounds were usually dissolved, tested and stored as 20 mM stock solutions in DMSO. Since sulfonyl acetic acid derivatives tend to decarboxylate under these conditions, these stock solutions were prepared, tested and stored as 20 mM DMSO stock solutions containing 100 mM trifluoroacetic acid (5 equivalents). Sulfonyl acetic acid derivatives are shelf stable as solid at rt for long time as reported by Griesbrecht et al. (Synlett 2010:374) or Faucher et al. (J. Med. Chem. 2004; 47:18).
(§2) LXR Gal4 Reporter Transient Transfection Assays
(§3) LXRα and LXRβ activity status was determined via detection of interaction with coactivator and corepressor proteins in mammalian two-hybrid experiments (M2H). For this, via transient transfection the full length (FL) proteins of LXRα (amino acids 1-447; NP005684; SEQ ID NO:7) or LXRβ-(amino acids 1-461; NP009052; SEQ ID NO:8) or the ligand-binding domains (LBD) of LXRα (amino acids 155-447 SEQ ID NO:3) or LXRβ (amino acids 156-461; SEQ ID NO:4) were expressed from pCMV-AD (Stratagene) as fusions to the transcriptional activation domain of NFkB. As cofactors, domains of either the steroid receptor coactivator 1 (SRC1; amino acids 552-887; SEQ ID NO:5) or of the corepressor NCoR (amino acids 1903-2312 SEQ ID NO:6) were expressed as fusions to the DNA binding domain of the yeast transcription factor GAL4 (from pCMV-BD; Stratagene). Interaction was monitored via activation of a coexpressed Firefly Luciferase Reporter gene under control of a promoter containing repetitive GAL4 response elements (vector pFRLuc; Stratagene). Transfection efficiency was controlled via cotransfection of constitutively active pRL-CMV Renilla reniformis luciferase reporter (Promega). HEK293 cells were grown in minimum essential medium (MEM) with 2 mM L-glutamine and Earle's balanced salt solution supplemented with 8.3% fetal bovine serum, 0.1 mM non-essential amino acids, 1 mM sodium pyruvate, at 37° C. in 5% CO2. 3.5×10^4 cells/well were plated in 96-well cell culture plates in growth medium supplemented with 8.3% fetal bovine serum for 16-20 h to ˜90% confluency. For transfection, medium was taken off and LXR and cofactor expressing plasmids as well as the reporter plasmids are added in 30 μL OPTIMEM/well including polyethylene-imine (PEI) as vehicle. Typical amounts of plasmids transfected/well: pCMV-AD-LXR (5 ng), pCMV-BD-cofactor (5 ng), pFR-Luc (100 ng), pRL-CMV (0.5 ng). Compound stocks were prepared in DMSO, prediluted in MEM to a total volume of 120 μL, and added 4 h after addition of the transfection mixture (final vehicle concentration not exceeding 0.2%). Cells were incubated for additional 16 h, lysed for 10 min in 1× Passive Lysis Buffer (Promega) and Firefly and Renilla luciferase activities were measured sequentially in the same cell extract using buffers containing D-luciferine and coelenterazine, respectively. Measurements of luminescence were done in a BMG-Iuminometer.

[1] = molecular target: T2, GST-LXRβ ligand-binding domain (Homo sapiens, UniProt P55055, DUP175-175); assay: TR-FRETβ activity assay (LXRβ-LBD / NCoA3 coactivator peptide, prestimulated with 24(S)-25-epoxycholesterol); format: biochemical; parameters: key to behavior in FRET assay: ag=agonist; ia=inverse agonist; details: for EC50: 1 μM 24(S)-25-epoxycholesterol as prestimulating agonist, read-out: FRETβ activity range (EC50); for behavior in FRET assay: agonist or inverse agonist
T2 construct: amino acids 156-461; NP009052; made in house; host or cells: E. coli
T2 sequence (P55055 with tags, fused parts or gaps DUP175-175): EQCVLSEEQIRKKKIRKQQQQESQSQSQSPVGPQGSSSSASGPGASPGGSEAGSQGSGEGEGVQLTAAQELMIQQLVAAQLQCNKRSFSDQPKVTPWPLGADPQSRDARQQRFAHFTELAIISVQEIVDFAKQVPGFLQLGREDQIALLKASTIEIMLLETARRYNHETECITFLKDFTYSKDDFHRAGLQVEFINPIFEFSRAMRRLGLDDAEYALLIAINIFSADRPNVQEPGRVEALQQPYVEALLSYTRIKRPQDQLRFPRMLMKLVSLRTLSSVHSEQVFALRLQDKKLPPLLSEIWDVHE
Protocol: The tested compounds were usually dissolved, tested and stored as 20 mM stock solutions in DMSO. […] Sulfonyl acetic acid derivatives are shelf stable as solid at rt for long time as reported by Griesbrecht et al. (Synlett 2010:374) or Faucher et al. (J. Med. Chem. 2004; 47:18). TR-FRETβ Activity Assay Recombinant GST-LXRβ ligand-binding domain (LBD; amino acids 156-461; NP009052; SEQ ID NO:2) was expressed in E. coli and purified via gluthatione-sepharose affinity chromatography. N-terminally biotinylated NCoA3 coactivator peptide (SEQ ID NO:1) was chemically synthesized (Eurogentec). […] Finally, a detection mix was added containing anti GST-Tb cryptate (CisBio; 610SAXLB) and Streptavidin-XL665 (CisBio; 610SAXLB) as fluorescent donor and acceptor, respectively, as well as the coactivator peptide and LXRβ-LBD protein (SEQ ID NO:2). The reaction was mixed thoroughly, equilibrated for 1 h at 4° C. and vicinity of LXRβ and coactivator peptide was detected by measurement of fluorescence in a VictorX4 multiplate reader (PerkinElmer Life Science) using 340 nm as excitation and 615 and 665 nm as emission wavelengths. Assays were performed in triplicates. Final Assay Concentrations of Components: 240 mM KCl, 1 μg/μL BSA, 0.002% Triton-X-100, […] anti GST-Tb cryptate, 2.5 ng/μL Streptavidin-XL665, coactivator peptide (400 nM), LXRβ protein ([…], i.e. 76 nM)

LXRα full length (FL) = molecular target: T3, LXRα full length (FL) (Homo sapiens, UniProt Q13133); assay: LXR Gal4 reporter transient transfection assay (M2H), Gal4α FL; format: cell-based; details: HEK293 cells; read-out: M2H Gal4α FL activity range (EC50)
T3 construct: the full length (FL) proteins of LXRα (amino acids 1-447); NP005684; expressed in transfected cells; host or cells: HEK293
T3 sequence (Q13133 1-447): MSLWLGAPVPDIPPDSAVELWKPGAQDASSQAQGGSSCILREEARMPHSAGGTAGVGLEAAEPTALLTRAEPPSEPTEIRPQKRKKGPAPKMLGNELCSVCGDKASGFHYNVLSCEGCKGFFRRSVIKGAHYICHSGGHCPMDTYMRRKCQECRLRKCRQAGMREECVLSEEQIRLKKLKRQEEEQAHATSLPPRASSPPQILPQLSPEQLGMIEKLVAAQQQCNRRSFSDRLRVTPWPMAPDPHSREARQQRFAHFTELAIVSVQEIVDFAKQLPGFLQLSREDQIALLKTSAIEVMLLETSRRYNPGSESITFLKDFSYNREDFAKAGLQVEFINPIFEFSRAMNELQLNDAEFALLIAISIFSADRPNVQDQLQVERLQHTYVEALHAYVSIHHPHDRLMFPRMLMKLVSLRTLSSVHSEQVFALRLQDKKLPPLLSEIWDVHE
Protocol: as §1, §2, §3

Compound | EC50 (LXRβ full length (FL)) [nM] | EC50 [1] [nM] | behavior in FRET assay [1] | EC50 (LXRα full length (FL)) [nM]
Cc1cc(C)c(S(=O)(=O)N(Cc2ccc(-c3cccc(S(=O)(=O)C(C)C(=O)O)c3)cc2)Cc2ccc(C(F)(F)F)o2)c(C)c1 (centres unmarked) [Example 5/1] | 100 to 1000 | 1000 to 10000 | ia | 100 to 1000
Cc1ccc2ccccc2c1S(=O)(=O)N(Cc1ccc(-c2cccc(C(C)(C)C(=O)O)c2)cc1)C1CCc2ccc(C(F)(F)F)cc21 (centres unmarked) [17/2] | < 100 | 100 to 1000 | ia | < 100
Cc1cc(C)c(S(=O)(=O)N(Cc2ccc(-c3cccc(S(=O)(=O)CC(=O)O)c3)cc2)Cc2ccc(C(F)F)o2)c(C)c1 [10/13] | 100 to 1000 | 1000 to 10000 | ia | 1000 to 10000
Cc1cc(C(F)(F)F)oc1CN(Cc1ccc(-c2cccc(C(C)(C)C(=O)O)c2)cc1)S(=O)(=O)c1c(C)ccc2ccccc12 [17/3] | < 100 | < 100 | ia | < 100
Cc1cc(C)c(S(=O)(=O)N(Cc2ccc(-c3cccc(S(=O)(=O)CC(=O)O)c3)cc2)Cc2cccc(C(F)(F)F)c2)c(C)c1 [Example 11, 2-((4′-(((2,4,6-Trimethyl-N-(3-(trifluoromethyl)benzyl)phenyl)sulfonamido)methyl)-[1,1′-biphenyl]-3-yl)sulfonyl)acetic acid] | 1000 to 10000 | 1000 to 10000 | ia | 1000 to 10000
Cc1cc(C)c(S(=O)(=O)N(Cc2ccc(-c3cccc(S(=O)(=O)CC(=O)O)c3)cc2)Cc2ccc(F)cc2Cl)c(C)c1 [11/11] | 100 to 1000 | 100 to 1000 | ag | 1000 to 10000
Cc1ccc(S(=O)(=O)N(Cc2ccc(-c3cccc(S(=O)(=O)CC(=O)O)c3)cc2)Cc2ccc(C(F)(F)F)o2)c(C)c1 [10/12] | 100 to 1000 | 1000 to 10000 | ia | 1000 to 10000
Cc1cc(C)c(S(=O)(=O)N(Cc2ccc(-c3cccc(S(=O)(=O)CC(=O)O)c3)cc2)Cc2c(F)cccc2Cl)c(C)c1 [11/6] | < 100 | 100 to 1000 | ag | 100 to 1000
Cc1cccc(C)c1S(=O)(=O)N(Cc1ccc(-c2cccc(S(=O)(=O)CC(=O)O)c2)cc1)Cc1ccc(C(F)(F)F)o1 [14/2] | 100 to 1000 | 1000 to 10000 | ia | 1000 to 10000
Cc1cc(C)c(S(=O)(=O)N(Cc2ccc(-c3cccc(S(=O)(=O)CC(=O)O)c3)cc2)Cc2cncc(C(F)(F)F)c2)c(C)c1 [11/9] | 1000 to 10000 | 1000 to 10000 | ia | 1000 to 10000
Cc1ccc2ccccc2c1S(=O)(=O)N(Cc1ccc(-c2cccc(S(=O)(=O)CC(=O)O)c2)cc1)Cc1ccc(C(F)(F)F)o1 [Example 10, 2-((4′-(((2-Methyl-N-((5-(trifluoromethyl)furan-2-yl)methyl)naphthalene)-1-sulfonamido)methyl)[1,1′-biphenyl]-3-yl)sulfonyl)acetic acid] | 100 to 1000 | 100 to 1000 | ia | 100 to 1000
COc1ccc2cccnc2c1S(=O)(=O)N(Cc1ccc(-c2cccc(C(C)(C)C(=O)O)c2)cc1)Cc1ccc(C(F)(F)F)o1 [10/19] | < 100 | 100 to 1000 | ag | < 100
Cc1cc(C)c(S(=O)(=O)N(Cc2ccc(-c3cccc(S(=O)(=O)CC(=O)O)c3)cc2)Cc2ccccc2C(F)(F)F)c(C)c1 [11/12] | < 100 | 100 to 1000 | ag | 100 to 1000
Cc1ccc2ccccc2c1S(=O)(=O)N(Cc1ccc(-c2cccc(S(=O)(=O)CC(=O)O)c2)cc1)Cc1ccc(C#N)o1 [Example 5/7] | 100 to 1000 | 1000 to 10000 | ia | 100 to 1000
Cc1cc(F)cc(C)c1S(=O)(=O)N(Cc1ccc(-c2cccc(S(=O)(=O)CC(=O)O)c2)cc1)Cc1ccc(C(F)(F)F)o1 [10/2] | 100 to 1000 | 1000 to 10000 | ia | 1000 to 10000
Cc1ccc2ccccc2c1S(=O)(=O)N(Cc1ccc(-c2cccc(S(=O)(=O)CC(=O)O)c2)cc1)Cc1cc(C(F)(F)F)co1 [10/16] | 100 to 1000 | > 10000 | ia | 1000 to 10000
COc1cc(C)cc(C)c1S(=O)(=O)N(Cc1ccc(-c2cccc(S(=O)(=O)CC(=O)O)c2)cc1)Cc1ccc(C(F)(F)F)o1 [10/8] | 1000 to 10000 | 1000 to 10000 | ag | 1000 to 10000

Reference: patent US20200115357A1, “LIVER X RECEPTORS (LXR) MODULATORS” (Phenex-FXR GmbH, priority 2017, published 2020)
